# From patent US10105365B2, “Solid antiviral dosage forms” (AbbVie Inc., priority 2014, dated 2018)
# Read-outs that look alike come from different tables or passages of the source.
# Key:
# [1] = Human pharmacokinetic study, Example 4 Arm III (14-day multiple dose, steady state); type: in vivo
# [2] = Human pharmacokinetic study, Example 4 Arm II (single dose, crossover); type: in vivo; details: human, in vivo
# Protocol: Formulation C5-12 and a second formulation were tested in Arm II of the study. Adult male and female subjects (N=30 for combined Arm I and Arm II studies) in general good health were selected to participate in the study according to the selection criteria. Subjects meeting the selection criteria were randomly assigned to one of the Regimen sequences as shown below in Table 4-A.
# Study drug was administered as provided below in Table 4-B.
# Each study regimen was taken orally with approximately 240 mL of water approximately 30 minutes after the start of standardized breakfast. Study regimens were administered orally in the morning on Study Day 1 of each period. For Regimen A the evening dose of the Single Tablet was taken orally with approximately 240 mL of water approximately 30 minutes after the start of the evening snack. Serial blood samples for pharmacokinetic analysis were collected 72 hours after dosing in each period.
# The data presented in Tables 4-C through 4-G are preliminary data and are subject to database lock and final data verification.
# [3] = Solubility (general statement); type: physicochemical; details: aqueous
# [4] = Sink Conditions dissolution testing of Formulation C5-12; type: physicochemical; details: N = 6
# Protocol: The release profiles of Formulation C5-12 of Example 1 were evaluated in a Sink Conditions dissolution study. The study was conducted in 900 mL of dissolution medium using a standard USP dissolution Apparatus 2 (paddle) operating at 100 RPM at 37±0.5° C. The dissolution medium was a 0.05 M sodium phosphate buffer pH 6.8 with 15 mM cTAB as a surfactant.
# [5] = Human pharmacokinetic study, Example 5 Arm I (single dose, replicated crossover); type: in vivo; details: single dose, non-fasting
# Protocol: (§1) A Phase 1, non-fasting, open-label, two-arm, four-period, randomized, crossover study was conducted to compare and characterize the pharmacokinetics of (i) Triple Tablet when co-administered with Single Tablet, and (ii) Formulation C5-12 as discussed below. Part 1 was a single dose, two-treatment, randomized, four period, two sequence replicated crossover study with 88 subjects. Doses in the four periods were separated by at least 10 days. Part 2 was a multiple-dose, two-treatment, two period, randomized crossover study with 66 subjects. Dosing in each period was 14 days and doses in the two periods were separated by at least 10 days.
# (§2) Adult male and female subjects in general good health were selected to participate in the study according to the selection criteria. Subjects meeting the selection criteria were randomly assigned to one of the sequences of Regimens A and B (four sequences for Arm I and two sequences for Arm II) as shown below in Table 5-A.
# (§3) Study drug was administered as provided below in Table 5-B.
# (§4) Each study regimen was taken orally with approximately 240 mL of water approximately 30 minutes after the start of standardized breakfast. Study regimens were administered orally in the morning on Study Day 1 of each period. Serial blood samples for pharmacokinetic analysis were collected 72 hours after dosing in each period.
# Tables 5-C, 5-D, 5-E, and 5-F below report the Arm I pharmacokinetic data for Formulation C5-12 (separately reported for each of Compounds 1, 2, 3, and 4). Table 5-G presents the results of a relative bioavailability and 90% confidence interval analysis of the pharmacokinetic data for Formulation C5-12 relative to the reference regimen. The data presented in Tables 5-C through 5-G are preliminary data and are subject to database lock and final data verification by the statistician.
# [6] = Human pharmacokinetic study, Example 5 Arm II (multiple dose, crossover); type: in vivo; details: in vivo
# Protocol: as §1, §2, §3, §4
# [7] = Formulation C5-12, Day 14 versus Day 1
# [8] = human, in vivo, oral, 3 Formulation C5-12 tablets daily, three Formulation C5-12 tablets daily for 14 days, non-fasting, Day 14, N = 14
# [9] = three Formulation C5-12 tablets daily for 14 days, non-fasting, Day 1, N = 14
# [10] = Regimen B (reference regimen): two Triple Tablets + one Single Tablet morning, one Single Tablet evening, N = 171
smiles,measurement,setting,value
COC(=O)N[C@H](C(=O)N1CCC[C@H]1C(=O)Nc1ccc([C@@H]2CC[C@@H](c3ccc(NC(=O)[C@@H]4CCCN4C(=O)[C@@H](NC(=O)OC)C(C)C)cc3)N2c2ccc(C(C)(C)C)cc2)cc1)C(C)C [Compound 2],"AUC24, RATIO",[1]; [7],1.34
same,"C24, RATIO",[1]; [7],1.72
same,"Cmax, RATIO",[1]; [7],1.10
same,Tmax,"[1]; human, in vivo, oral, 3 Formulation C5-12 tablets daily, three Formulation C5-12 tablets daily for 14 days, non-fasting, Day 1, N = 14",5.5 h
same,concentration at 24 h,"[1]; human, in vivo, oral, 3 Formulation C5-12 tablets daily, three Formulation C5-12 tablets daily for 14 days, non-fasting, Day 1, N = 14, read-out: C24, geometric mean",0.0234 µg/mL
same,Tmax,[1]; [8],5.6 h
same,half-life,[1]; [8],29.8 h
same,AUC,"[1]; human, in vivo, oral, 3 Formulation C5-12 tablets daily, three Formulation C5-12 tablets daily for 14 days, non-fasting, Day 14, N = 14, read-out: AUC24, geometric mean",1.72 µg·h/mL
same,concentration at 24 h,"[1]; human, in vivo, oral, 3 Formulation C5-12 tablets daily, three Formulation C5-12 tablets daily for 14 days, non-fasting, Day 14, N = 14, read-out: C24, geometric mean",0.0402 µg/mL
same,Cmax,"[1]; human, in vivo, oral, 3 Formulation C5-12 tablets daily, three Formulation C5-12 tablets daily for 14 days, non-fasting, Day 14, N = 14, read-out: Cmax, geometric mean",0.135 µg/mL
same,"AUC24, geometric mean",[1]; [9],1.28 µg·h/mL
same,"Cmax, geometric mean",[1]; [9],0.123 µg/mL
same,β,"[1]; three Formulation C5-12 tablets daily for 14 days, non-fasting, Day 14, N = 14",0.023 h⁻¹
same,"AUCt, geometric mean",[2]; both,1.51 µg·h/mL
same,"AUC∞, geometric mean",[2]; both,1.67 µg·h/mL
same,"Cmax, geometric mean",[2]; both,0.117 µg/mL
same,Tmax,[2]; both,5.2 h
same,t1/2,[2]; both,23.2 h
same,"C24, arithmetic mean, % CV","[2]; both, 24 h","(19.4, 29) ng/mL"
same,"C24, geometric mean","[2]; both, 24 h",18.7 ng/mL
same,"AUCt, arithmetic mean, % CV",[2],"(1560, 25) ng · h/mL"
same,"AUC∞, arithmetic mean, % CV",[2],"(1740, 29) ng · h/mL"
same,"Cmax, arithmetic mean, % CV",[2],"(122, 31) ng/mL"
same,"Relative bioavailability, AUCinf, point estimate",[2],1.022
same,"Relative bioavailability, Cmax, point estimate",[2],1.038
same,Solubility,[3],low solubility
same,% Released,"[4]; 1 hour, 900 mL 0.05 M sodium phosphate buffer pH 6.8, 15 mM cTAB, USP Apparatus 2, 100 RPM, 37 °C",55%
same,% Released,"[4]; 4 hours, pH 6.8 buffer, 15 mM cTAB",98%
same,% Released,"[4]; 6 hours, pH 6.8 buffer, 15 mM cTAB",99%
same,% Released,"[4]; 8 hours, pH 6.8 buffer, 15 mM cTAB",103%
same,% Released,"[4]; 12 hours, pH 6.8 buffer, 15 mM cTAB",102%
same,% Released,"[4]; 16 hours, pH 6.8 buffer, 15 mM cTAB",102%
same,half-life,"[5]; both sexes, human, blood, oral, 3 film-coated Formulation C5-12 tablets, Regimen A (C5-12): three film-coated Formulation C5-12 tablets, N = 172",37.9 h
same,AUC(0-t),"[5]; both sexes, human, blood, oral, 3 film-coated Formulation C5-12 tablets, Regimen A (C5-12): three film-coated Formulation C5-12 tablets, N = 172, read-out: AUCt, geometric mean",1.66 µg·h/mL
same,AUC(0-inf),"[5]; both sexes, human, blood, oral, 3 film-coated Formulation C5-12 tablets, Regimen A (C5-12): three film-coated Formulation C5-12 tablets, N = 172, read-out: AUC∞, geometric mean",1.8 µg·h/mL
same,Tmax,"[5]; both sexes, human, blood, oral, 3 film-coated Formulation C5-12 tablets, Regimen A (C5-12): three film-coated Formulation C5-12 tablets, N = 172, read-out: Tmax, first value (geometric mean)",5 h
same,AUC(0-t),"[5]; both sexes, human, blood, oral, Regimen B (reference regimen): two Triple Tablets + one Single Tablet morning, one Single Tablet evening, N = 171, read-out: AUCt, geometric mean",1.63 µg·h/mL
same,AUC(0-inf),"[5]; both sexes, human, blood, oral, Regimen B (reference regimen): two Triple Tablets + one Single Tablet morning, one Single Tablet evening, N = 171, read-out: AUC∞, geometric mean",1.76 µg·h/mL
same,Tmax,"[5]; both sexes, human, blood, oral, Regimen B (reference regimen): two Triple Tablets + one Single Tablet morning, one Single Tablet evening, N = 171, read-out: Tmax, first value (geometric mean)",5 h
same,"Cmax, geometric mean","[5]; Regimen A (C5-12): three film-coated Formulation C5-12 tablets, N = 172",0.124 µg/mL
same,"Cmax, geometric mean",[5]; [10],0.131 µg/mL
same,t1/2,[5]; [10],39.2 h
same,Exposures versus the reference regimen,[6],bioequivalent
same,"Relative bioavailability, AUC24, point estimate",[6],1.098
same,"Relative bioavailability, AUCt, point estimate",[6],1.091
same,"Relative bioavailability, Cmax, point estimate",[6],1.087
